In US20230055237A1, “COMPOUNDS AND METHODS FOR THE TREATMENT OF CYSTIC FIBROSIS” (Flatley Discovery Lab, LLC, priority 2019, published 2023):

Target: T1, CFTR (Homo sapiens, UniProt P13569, DEL508-508)
T1 construct: Primary CF airway epithelial cells were obtained from the UNC Cystic Fibrosis Tissue Procurement and Cell Culture Core; host or cells: primary CF airway epithelial cells, differentiated at the air-liquid interface
Experiment: Equivalent current assay in primary CF airway epithelial cells (NAUC, combination with 1st site corrector FDL169 or VX-809)
Assay type: cell-based
Details: 37° C., 24 h

[1] = test compound 1 μM in combination with 1st site corrector VX-809 (3 μM)
[2] = test compound 3 μM in combination with 1st site corrector VX-809 (3 μM)
[3] = test compound 10 μM in combination with 1st site corrector VX-809 (3 μM)
[4] = test compound 1 μM in combination with 1st site corrector FDL169 (3 μM)
[5] = test compound 3 μM in combination with 1st site corrector FDL169 (3 μM)
[6] = test compound 10 μM in combination with 1st site corrector FDL169 (3 μM)

T1 sequence (P13569 with tags, fused parts or gaps DEL508-508): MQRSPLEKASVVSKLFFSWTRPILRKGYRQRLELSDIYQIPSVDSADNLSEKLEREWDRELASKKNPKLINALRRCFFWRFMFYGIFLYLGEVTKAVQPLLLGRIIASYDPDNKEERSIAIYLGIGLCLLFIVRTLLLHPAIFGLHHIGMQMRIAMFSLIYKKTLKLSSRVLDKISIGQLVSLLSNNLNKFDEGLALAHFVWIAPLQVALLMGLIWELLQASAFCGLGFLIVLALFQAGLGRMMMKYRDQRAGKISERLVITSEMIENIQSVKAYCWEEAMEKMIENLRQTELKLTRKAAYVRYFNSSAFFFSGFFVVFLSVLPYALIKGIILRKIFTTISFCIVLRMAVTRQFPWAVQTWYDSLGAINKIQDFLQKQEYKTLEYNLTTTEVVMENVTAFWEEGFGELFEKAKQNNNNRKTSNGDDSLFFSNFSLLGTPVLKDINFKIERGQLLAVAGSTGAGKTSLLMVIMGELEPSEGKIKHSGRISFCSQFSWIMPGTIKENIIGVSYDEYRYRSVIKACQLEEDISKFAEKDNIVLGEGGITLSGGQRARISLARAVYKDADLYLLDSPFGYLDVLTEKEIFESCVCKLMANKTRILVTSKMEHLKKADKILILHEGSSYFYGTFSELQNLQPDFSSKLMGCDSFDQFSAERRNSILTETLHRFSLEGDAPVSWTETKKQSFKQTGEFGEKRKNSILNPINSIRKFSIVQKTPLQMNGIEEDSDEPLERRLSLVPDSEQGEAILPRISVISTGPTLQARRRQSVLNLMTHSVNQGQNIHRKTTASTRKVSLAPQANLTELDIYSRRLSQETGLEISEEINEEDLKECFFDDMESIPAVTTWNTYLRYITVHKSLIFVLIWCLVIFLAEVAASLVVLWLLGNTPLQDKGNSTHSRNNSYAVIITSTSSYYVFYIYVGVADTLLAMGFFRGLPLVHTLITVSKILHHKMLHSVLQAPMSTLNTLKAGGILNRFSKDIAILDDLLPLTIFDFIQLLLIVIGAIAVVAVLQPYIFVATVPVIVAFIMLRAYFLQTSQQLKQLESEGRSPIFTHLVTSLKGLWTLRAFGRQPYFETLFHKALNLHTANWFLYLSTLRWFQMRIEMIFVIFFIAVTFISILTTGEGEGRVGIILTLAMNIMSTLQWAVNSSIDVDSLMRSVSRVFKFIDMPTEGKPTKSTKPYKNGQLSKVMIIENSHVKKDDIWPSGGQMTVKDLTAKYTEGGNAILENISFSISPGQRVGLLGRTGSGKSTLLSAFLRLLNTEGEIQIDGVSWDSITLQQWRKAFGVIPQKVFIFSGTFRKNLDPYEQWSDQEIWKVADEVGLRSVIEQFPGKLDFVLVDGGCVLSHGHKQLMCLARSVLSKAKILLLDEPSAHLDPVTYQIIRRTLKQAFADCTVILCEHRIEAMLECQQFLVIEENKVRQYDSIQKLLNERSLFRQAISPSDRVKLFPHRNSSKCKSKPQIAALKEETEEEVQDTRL

SMILES: O=C(Nc1cc(Cl)cc(Cl)c1)C1CN(CC(F)(F)F)C2(C(=O)Nc3c(Cl)cc(Cl)cc32)C1C(=O)O (stereo not drawn) [Example 79c]
- Nauc @ 1 μM [1]: + (NAUC “+” refers to an observed NAUC <140% of positive control)
- Nauc @ 3 μM [2]: + (NAUC “+” refers to an observed NAUC <140% of positive control)
- Nauc @ 10 μM [3]: + (NAUC “+” refers to an observed NAUC <140% of positive control)

SMILES: CC(C)(C)CN(C(=O)[C@H]1[C@H]2C[C@](C)(OCc3ccccc3)CN2[C@]2(C(=O)Nc3c(Cl)cc(Cl)cc32)[C@H]1C(=O)O)c1cc(Cl)cc(Cl)c1 [Example 90, (1′R,2′S,3R,6′S,7a′R)-6′-(benzyloxy)-5,7-dichloro-1-((3,5-dichlorophenyl)(neopentyl)carbamoyl)-6′-methyl-2-oxo-1′,2′,5′,6′,7′,7a′-hexahydrospiro[indoline-3,3′-pyrrolizine]-2′-carboxylic acid]
- Nauc @ 1 μM [4]: + (NAUC “+” refers to an observed NAUC <140% of positive control)
- Nauc @ 3 μM [5]: + (NAUC “+” refers to an observed NAUC <140% of positive control)

SMILES: CC(C)(C)CN(C(=O)[C@H]1[C@H]2C[C@](C)(O)CN2[C@]2(C(=O)Nc3c(Cl)cc(Cl)cc32)[C@H]1C(=O)O)c1cc(Cl)cc(Cl)c1 [Example 91, (1′R,2′S,3R,6′S,7a′R)-5,7-dichloro-1′-((3,5-dichlorophenyl)(neopentyl)carbamoyl)-6′-hydroxy-6′-methyl-2-oxo-1′,2′,5′,6′,7′,7a′-hexahydrospiro[indoline-3,3′-pyrrolizine]-2′-carboxylic acid]
- Nauc @ 1 μM [4]: ++ (NAUC “++” refers to an observed NAUC 170-140% of positive control)
- Nauc @ 3 μM [5]: ++ (NAUC “++” refers to an observed NAUC 170-140% of positive control)

SMILES: CN(C(=O)[C@H]1[C@H]2C[C@](C)(OCc3ccccc3)CN2[C@]2(C(=O)Nc3c(Cl)cc(Cl)cc32)[C@H]1C(=O)O)c1cc(Cl)cc(Cl)c1 [Example 92]
- Nauc @ 1 μM [4]: + (NAUC “+” refers to an observed NAUC <140% of positive control)
- Nauc @ 1 μM [1]: ++ (NAUC “++” refers to an observed NAUC 170-140% of positive control)
- Nauc @ 3 μM [5]: ++ (NAUC “++” refers to an observed NAUC 170-140% of positive control)
- Nauc @ 3 μM [2]: +++ (NAUC “+++” refers to an observed NAUC>170% of positive control)
- Nauc @ 10 μM [6]: +++ (NAUC “+++” refers to an observed NAUC>170% of positive control)
- Nauc @ 10 μM [3]: +++ (NAUC “+++” refers to an observed NAUC>170% of positive control)

SMILES: C[C@]1(OCc2ccccc2)C[C@@H]2[C@H](C(=O)N(CC3CC3)c3cc(Cl)cc(Cl)c3)[C@H](C(=O)O)[C@@]3(C(=O)Nc4c(Cl)cc(Cl)cc43)N2C1 [Example 93]
- Nauc @ 1 μM [4]: +++ (NAUC “+++” refers to an observed NAUC>170% of positive control)
- Nauc @ 3 μM [5]: +++ (NAUC “+++” refers to an observed NAUC>170% of positive control)
- Nauc @ 10 μM [6]: ++ (NAUC “++” refers to an observed NAUC 170-140% of positive control)

SMILES: C[C@]1(OCc2ccccc2)C[C@@H]2[C@H](C(=O)N(CC3CCCC3)c3cc(Cl)cc(Cl)c3)[C@H](C(=O)O)[C@@]3(C(=O)Nc4c(Cl)cc(Cl)cc43)N2C1 [Example 94]
- Nauc @ 1 μM [4]: ++ (NAUC “++” refers to an observed NAUC 170-140% of positive control)
- Nauc @ 3 μM [5]: ++ (NAUC “++” refers to an observed NAUC 170-140% of positive control)

SMILES: CC(C)(C)C(C)(C)CN(C(=O)[C@H]1[C@H]2C[C@](C)(OCc3ccccc3)CN2[C@]2(C(=O)Nc3c(Cl)cc(Cl)cc32)[C@H]1C(=O)O)c1cc(Cl)cc(Cl)c1 [Example 95]
- Nauc @ 1 μM [4]: +++ (NAUC “+++” refers to an observed NAUC>170% of positive control)
- Nauc @ 3 μM [5]: +++ (NAUC “+++” refers to an observed NAUC>170% of positive control)
- Nauc @ 10 μM [6]: +++ (NAUC “+++” refers to an observed NAUC>170% of positive control)

SMILES: CC(C)(C)C(C)(C)CN(C(=O)[C@H]1[C@H]2C[C@](C)(O)CN2[C@]2(C(=O)Nc3c(Cl)cc(Cl)cc32)[C@H]1C(=O)O)c1cc(Cl)cc(Cl)c1 [Example 96]
- Nauc @ 1 μM [4]: +++ (NAUC “+++” refers to an observed NAUC>170% of positive control)
- Nauc @ 3 μM [5]: +++ (NAUC “+++” refers to an observed NAUC>170% of positive control)
- Nauc @ 10 μM [6]: + (NAUC “+” refers to an observed NAUC <140% of positive control)

SMILES: CN(C(=O)[C@H]1[C@H]2CC(F)(F)CN2C2(C(=O)Nc3cc(Cl)ccc32)[C@H]1C(=O)O)c1cc(Cl)cc(Cl)c1 (stereo partly drawn) [Example 101]
- Nauc @ 1 μM [4]: + (NAUC “+” refers to an observed NAUC <140% of positive control)
- Nauc @ 3 μM [5]: + (NAUC “+” refers to an observed NAUC <140% of positive control)

SMILES: CN(C(=O)[C@H]1[C@H]2CC(F)(F)CN2C2(C(=O)Nc3ccccc32)[C@H]1C(=O)O)c1cc(Cl)cc(Cl)c1 (stereo partly drawn) [Example 102]
- Nauc @ 10 μM [3]: + (NAUC “+” refers to an observed NAUC <140% of positive control)

SMILES: COc1ccc2c(c1)C1(C(=O)N2)[C@@H](C(=O)O)[C@@H](C(=O)N(C)c2cc(Cl)cc(Cl)c2)[C@H]2CC(F)(F)CN21 (stereo partly drawn) [Example 103]
- Nauc @ 1 μM [4]: + (NAUC “+” refers to an observed NAUC <140% of positive control)
- Nauc @ 3 μM [5]: + (NAUC “+” refers to an observed NAUC <140% of positive control)
- Nauc @ 10 μM [6]: + (NAUC “+” refers to an observed NAUC <140% of positive control)

SMILES: CN(C(=O)[C@H]1[C@H]2CC(F)(F)CN2C2(C(=O)Nc3c(Cl)cccc32)[C@H]1C(=O)O)c1cc(Cl)cc(Cl)c1 (stereo partly drawn) [Example 104]
- Nauc @ 10 μM [6]: + (NAUC “+” refers to an observed NAUC <140% of positive control)

SMILES: CC(C)(C)CN(C(=O)[C@H]1[C@H]2CC(F)(F)CN2[C@]2(C(=O)Nc3c(Cl)cc(Cl)cc32)[C@H]1C(=O)O)c1cc(Cl)cc(Cl)c1 [Example 110, (1′R,2′S,3R,7a′R)-5,7-dichloro-1-((3,5-dichlorophenyl)(neopentyl)carbamoyl)-6′,6′-difluoro-2-oxo-1′,2′,5′,6′,7′,7a′-hexahydrospiro[indoline-3,3′-pyrrolizine]-2′-carboxylic acid]
- Nauc @ 1 μM [4]: +++ (NAUC “+++” refers to an observed NAUC>170% of positive control)
- Nauc @ 3 μM [5]: +++ (NAUC “+++” refers to an observed NAUC>170% of positive control)
- Nauc @ 10 μM [6]: + (NAUC “+” refers to an observed NAUC <140% of positive control)

SMILES: CC(C)(C)CN(C(=O)[C@H]1[C@@H](C(=O)O)[C@]2(C(=O)Nc3c(Cl)cc(Cl)cc32)N2CC(F)(F)C[C@@H]12)c1cc(Cl)cc(Cl)c1 [Example 111, (1′S,2′R,3S,7a′S)-5,7-dichloro-1-((3,5-dichlorophenyl)(neopentyl)carbamoyl)-6′,6′-difluoro-2-oxo-1′,2′,5′,6′,7′,7a′-hexahydrospiro[indoline-3,3′-pyrrolizine]-2′-carboxylic acid]
- Nauc @ 1 μM [4]: + (NAUC “+” refers to an observed NAUC <140% of positive control)
- Nauc @ 3 μM [5]: ++ (NAUC “++” refers to an observed NAUC 170-140% of positive control)

SMILES: CN(CC1(c2cccc(C(C)(C)C)c2)CC1)C(=O)[C@H]1[C@H]2CC(F)(F)CN2[C@]2(C(=O)Nc3c(Cl)cc(Cl)cc32)[C@H]1C(=O)O [Example 112]
- Nauc @ 1 μM [1]: +++ (NAUC “+++” refers to an observed NAUC>170% of positive control)
- Nauc @ 3 μM [2]: +++ (NAUC “+++” refers to an observed NAUC>170% of positive control)
- Nauc @ 10 μM [3]: +++ (NAUC “+++” refers to an observed NAUC>170% of positive control)

SMILES: O=C(Nc1ccc2ccccc2n1)[C@H]1[C@H]2CC(F)(F)CN2[C@]2(C(=O)Nc3c(Cl)cc(Cl)cc32)[C@H]1C(=O)O [Example 113]
- Nauc @ 1 μM [1]: + (NAUC “+” refers to an observed NAUC <140% of positive control)
- Nauc @ 3 μM [2]: + (NAUC “+” refers to an observed NAUC <140% of positive control)
- Nauc @ 10 μM [3]: + (NAUC “+” refers to an observed NAUC <140% of positive control)

SMILES: CN(C(=O)[C@H]1[C@H]2CC(F)(F)CN2[C@]2(C(=O)Nc3c(Cl)cc(Cl)cc32)[C@H]1C(=O)O)c1cccc(C(F)(F)F)n1 [Example 114]
- Nauc @ 1 μM [1]: +++ (NAUC “+++” refers to an observed NAUC>170% of positive control)
- Nauc @ 3 μM [2]: ++ (NAUC “++” refers to an observed NAUC 170-140% of positive control)
- Nauc @ 10 μM [3]: +++ (NAUC “+++” refers to an observed NAUC>170% of positive control)

SMILES: O=C(Nc1ccc2ccccc2c1)[C@H]1[C@H]2CC(F)(F)CN2[C@]2(C(=O)Nc3c(Cl)cc(Cl)cc32)[C@H]1C(=O)O [Example 115]
- Nauc @ 1 μM [1]: + (NAUC “+” refers to an observed NAUC <140% of positive control)
- Nauc @ 3 μM [2]: + (NAUC “+” refers to an observed NAUC <140% of positive control)
- Nauc @ 10 μM [3]: + (NAUC “+” refers to an observed NAUC <140% of positive control)

SMILES: O=C(O)[C@H]1[C@@H](C(=O)N(c2cc(Cl)cc(Cl)c2)C2CC2)[C@H]2CC(F)(F)CN2[C@]12C(=O)Nc1c(Cl)cc(Cl)cc12 [Example 116]
- Nauc @ 1 μM [1]: +++ (NAUC “+++” refers to an observed NAUC>170% of positive control)
- Nauc @ 3 μM [2]: +++ (NAUC “+++” refers to an observed NAUC>170% of positive control)
- Nauc @ 10 μM [3]: ++ (NAUC “++” refers to an observed NAUC 170-140% of positive control)

SMILES: O=C(Nc1ccc2ccccc2c1)[C@H]1[C@H]2CC(F)(F)CN2[C@]2(C(=O)Nc3c(Cl)cc(Cl)cc32)[C@H]1C(=O)O [Example 117]
- Nauc @ 1 μM [1]: + (NAUC “+” refers to an observed NAUC <140% of positive control)
- Nauc @ 3 μM [2]: ++ (NAUC “++” refers to an observed NAUC 170-140% of positive control)
- Nauc @ 10 μM [3]: + (NAUC “+” refers to an observed NAUC <140% of positive control)

SMILES: Cc1nc2ccc(NC(=O)[C@H]3[C@H]4CC(F)(F)CN4[C@]4(C(=O)Nc5c(Cl)cc(Cl)cc54)[C@H]3C(=O)O)cc2s1 [Example 118]
- Nauc @ 1 μM [1]: + (NAUC “+” refers to an observed NAUC <140% of positive control)
- Nauc @ 3 μM [2]: + (NAUC “+” refers to an observed NAUC <140% of positive control)
- Nauc @ 10 μM [3]: + (NAUC “+” refers to an observed NAUC <140% of positive control)
